Data as given in patent publication US8852554B2, “Radiolabelled PDE10 ligands” (Janssen Pharmaceutica NV, priority 2009, dated 2014).
Several values for one entry are separate records, joined by “and”; a condition that tells them apart may be missing. Equal values may be shown once.

Test: Biodistribution studies of the 18F tracers in rats
Type: in vivo, male Wistar rats
Details: rat
Procedure: Biodistribution studies were carried out in healthy male Wister rats (body weight 200-500 g) at 2 min, 30 min and 60 min post injection (p.i.) (n=3/time point). For |^18F|B-4 only the 2 min and 30 min time points were studied. […] Blood and major organs were collected in tared tubes and weighed. The radioactivity in blood, organs and other body parts was measured using an automated gamma counter. The distribution of radioactivity in different parts of the body at different time points p.i. of the tracer was calculated and expressed as percentage of injected dose (% ID), and as percentage of injected dose per gram tissue (% ID/g) for the selected organs. % ID is calculated as cpm in organ/total cpm recovered. For calculation of total radioactivity in blood, blood mass was assumed to be 7% of the body mass.

- retention in the PDE10A-rich region striatum (biodistribution studies): retention
- % ID, Blood (i.v., 2 min p.i.): 4.55 ± 0.4 % ID
- % ID, Carcass (i.v., 2 min p.i.): 36.93 ± 1.3 % ID
- % ID, Cerebellum (i.v., 2 min p.i.): 0.07 % ID and 0.065 ± 0.011 % ID
- % ID, Cerebrum total (i.v., 2 min p.i.): 0.32 % ID and 0.317 ± 0.014 % ID
- % ID, Cortex (i.v., 2 min p.i.): 0.036 ± 0.007 % ID
- % ID, Heart (i.v., 2 min p.i.): 0.62 ± 0.2 % ID
- % ID, Hippocampus (i.v., 2 min p.i.): 0.006 ± 0.002 % ID
- % ID, Intestines (i.v., 2 min p.i.): 12.02 ± 2.1 % ID
- % ID, Kidneys (i.v., 2 min p.i.): 4.99 ± 0.2 % ID
- % ID, Liver (i.v., 2 min p.i.): 35.98 ± 3.1 % ID
- % ID, Lungs (i.v., 2 min p.i.): 1.12 ± 0.0 % ID
- % ID, Rest of cerebrum (i.v., 2 min p.i.): 0.257 ± 0.014 % ID
- % ID, Spleen + Pancreas (i.v., 2 min p.i.): 2.37 ± 0.2 % ID
- % ID, Stomach (i.v., 2 min p.i.): 2.8 % ID and 2.80 ± 0.2 % ID
- % ID, Striatum (i.v., 2 min p.i.): 0.018 ± 0.003 % ID
- % ID, Urine (i.v., 2 min p.i.): 0.28 ± 0.1 % ID
- % ID/g, Blood (i.v., 2 min p.i.): 0.14 ± 0.04 % ID/g
- % ID/g, Cerebellum (i.v., 2 min p.i.): 0.231 ± 0.031 % ID/g
- % ID/g, Cerebrum + Cerebellum (i.v., 2 min p.i.): 0.269 ± 0.066 % ID/g
- % ID/g, Cerebrum total (i.v., 2 min p.i.): 0.263 ± 0.029 % ID/g
- % ID/g, Cortex (i.v., 2 min p.i.): 0.355 ± 0.012 % ID/g
- % ID/g, Heart (i.v., 2 min p.i.): 0.45 ± 0.13 % ID/g
- % ID/g, Hippocampus (i.v., 2 min p.i.): 0.193 ± 0.031 % ID/g
- % ID/g, Liver (i.v., 2 min p.i.): 2.32 ± 0.28 % ID/g
- % ID/g, Lungs (i.v., 2 min p.i.): 0.46 ± 0.07 % ID/g
- % ID/g, Rest of cerebrum (i.v., 2 min p.i.): 0.248 ± 0.030 % ID/g
- % ID/g, Spleen + Pancreas (i.v., 2 min p.i.): 1.17 ± 0.03 % ID/g
- % ID/g, Striatum (i.v., 2 min p.i.): 0.467 ± 0.002 % ID/g
Compound: COc1ccc(COc2ccc(-c3nn(CC[18F])cc3-c3ccncc3)cc2)nc1 [[^18F]B-4]
- Clearance, 2 min/30 min ratio of % ID/g (normalized for body weight), Blood (i.v.): 1.36
- Clearance, 2 min/30 min ratio of % ID/g (normalized for body weight), Cerebellum (i.v.): 3.82
- Clearance, 2 min/30 min ratio of % ID/g (normalized for body weight), Cerebrum total (i.v.): 2.90
- Clearance, 2 min/30 min ratio of % ID/g (normalized for body weight), Cortex (i.v.): 4.24
- Clearance, 2 min/30 min ratio of % ID/g (normalized for body weight), Hippocampus (i.v.): 3.08
- Clearance, 2 min/30 min ratio of % ID/g (normalized for body weight), Rest of cerebrum (i.v.): 2.87
- Clearance, 2 min/30 min ratio of % ID/g (normalized for body weight), Striatum (i.v.): 1.80
- % ID/g normalized for body weight, Blood (i.v., 2 min p.i.): 0.07 ± 0.01 % ID/g × body wt. in kg
- % ID/g normalized for body weight, Cerebellum (i.v., 2 min p.i.): 0.109 % ID/g × body wt. in kg and 0.109 ± 0.01 % ID/g × body wt. in kg
- % ID/g normalized for body weight, Cerebrum + Cerebellum (i.v., 2 min p.i.): 0.13 ± 0.01 % ID/g × body wt. in kg
- % ID/g normalized for body weight, Cerebrum total (i.v., 2 min p.i.): 0.124 ± 0.01 % ID/g × body wt. in kg
- % ID/g normalized for body weight, Cortex (i.v., 2 min p.i.): 0.168 % ID/g × body wt. in kg and 0.168 ± 0.00 % ID/g × body wt. in kg
- % ID/g normalized for body weight, Heart (i.v., 2 min p.i.): 0.21 ± 0.06 % ID/g × body wt. in kg
- % ID/g normalized for body weight, Hippocampus (i.v., 2 min p.i.): 0.091 % ID/g × body wt. in kg and 0.091 ± 0.01 % ID/g × body wt. in kg
- % ID/g normalized for body weight, Kidneys (i.v., 2 min p.i.): 0.63 ± 0.17 % ID/g × body wt. in kg
- % ID/g normalized for body weight, Liver (i.v., 2 min p.i.): 1.09 ± 0.08 % ID/g × body wt. in kg
- % ID/g normalized for body weight, Lungs (i.v., 2 min p.i.): 0.22 ± 0.03 % ID/g × body wt. in kg
- % ID/g normalized for body weight, Rest of cerebrum (i.v., 2 min p.i.): 0.117 ± 0.01 % ID/g × body wt. in kg
- % ID/g normalized for body weight, Spleen + Pancreas (i.v., 2 min p.i.): 0.55 ± 0.03 % ID/g × body wt. in kg
- % ID/g normalized for body weight, Striatum (i.v., 2 min p.i.): 0.226 % ID/g × body wt. in kg and 0.226 ± 0.01 % ID/g × body wt. in kg
- striatum/blood ratio (from % ID/g normalized for body weight) (i.v., 2 min p.i.): 3.47
- striatum/cortex ratio (from % ID/g normalized for body weight) (i.v., 2 min p.i.): 1.35
- striatum/hippocampus ratio (from % ID/g normalized for body weight) (i.v., 2 min p.i.): 2.49
